The values that follow come from patent US12145929B2, “Piperidine derivative and pharmaceutical composition for inhibiting autotaxin comprising same” (NEXTGEN BIOSCIENCE CO., LTD., priority 2021, dated 2024).

The target in the experiment is human Autotaxin protein (Homo sapiens, UniProt Q13822). The experiment can be described thus: Evaluation of inhibitory activity against human Autotaxin protein (18:1 LysoPC substrate, choline assay kit, absorbance 570 nm). To be noted: compound at 500 nM, 2 hours at 37° C. In kind it is biochemical. As to the method:
The solution of each synthesized compound (80 uM, 100% dimethyl sulfoxide) was sequentially diluted 5 times with dimethyl sulfoxide to prepare 6 concentrations. Each concentration of compound was diluted two-fold with 1× test buffer (50 mM Tris-Cl (pH 8.0), 5 mM KCl, 1 mM CaCl2), 1 mM MgCl2, 140 mM NaCl, deionized water, 1 mg/mL BSA), and 1 uL (1.25% dimethyl sulfoxide) of this diluted mixture was dispensed into each well of a 96 well clear round bottom plate. 9 uL of 1× test buffer were added to each well, followed by the addition of 20 uL of 240 nM human Autotaxin protein (buffer: 50 mM Tris-HCl, pH 8.0, with 150 mM sodium chloride and 20% glycerol). 10 uL of sonicated 360 uM 18:1 LysoPC (diluted with 1× test buffer) were added to each well. The reaction was performed for 2 hours in a shaking incubator at 37° C., and a secondary reaction mixture (choline assay kit, KA1662) (65 uL of 1× test buffer: 1 uL of choline oxidase: 1 uL of dye probe) was prepared. 60 uL of the secondary reaction mixture were added to the reaction plate and reacted on a shaker for 30 minutes. Using a SpectraMax iD3 microplate reader, the absorbance was measured at a wavelength of 570 nm. The percentage of inhibition activity (% inhibition) was calculated by the Formula: (1−Absorbancetestgroup/Absorbancecontrol group)×100.
As for `c1ccc2c(c1)CC(Nc1ncc(-c3nnc(N4CCC(c5cnn[nH]5)CC4)o3)cn1)C2` [Example 1, 5-(5-(4-(1H-1,2,3-Triazol-5-yl)piperidin-1-yl)-1,3,4-oxadiazol-2-yl)-N-(2,3-dihydro-1H-inden-2-yl)pyrimidin-2-amine], the inhibition at 0.5 µM was determined as 99%. Still for that read-out and setting: to `Fc1ccc2c(c1)CC(Nc1ncc(-c3nnc(N4CCC(c5cnn[nH]5)CC4)o3)cn1)C2` (stereo not drawn) [Example 2, 5-(5-(4-(1H-1,2,3-Triazol-5-yl)piperidin-1-yl)-1,3,4-oxadiazol-2-yl)-N-(5-fluoro-2,3-dihydro-1H-inden-2-yl)pyrimidin-2-amine] belongs 100%; to `Clc1ccc2c(c1)CC(Nc1ncc(-c3nnc(N4CCC(c5cnn[nH]5)CC4)o3)cn1)C2` (stereo not drawn) [Example 3, 5-(5-(4-(1H-1,2,3-Triazol-5-yl)piperidin-1-yl)-1,3,4-oxadiazol-2-yl)-N-(5-chloro-2,3-dihydro-1H-inden-2-yl)pyrimidin-2-amine], 100%; to `Brc1ccc2c(c1)CC(Nc1ncc(-c3nnc(N4CCC(c5cnn[nH]5)CC4)o3)cn1)C2` (stereo not drawn) [Example 4, 5-(5-(4-(1H-1,2,3-Triazol-5-yl)piperidin-1-yl)-1,3,4-oxadiazol-2-yl)-N-(5-bromo-2,3-dihydro-1H-inden-2-yl)pyrimidin-2-amine], 90%. For the compound `Fc1cc2c(cc1F)CC(Nc1ncc(-c3nnc(N4CCC(c5cnn[nH]5)CC4)o3)cn1)C2` [Example 5, 5-(5-(4-(1H-1,2,3-Triazol-5-yl)piperidin-1-yl)-1,3,4-oxadiazol-2-yl)-N-(5,6-difluoro-2,3-dihydro-1H-inden-2-yl)pyrimidin-2-amine], the inhibition at 0.5 µM turned out to be 100%. In turn, `Clc1cc2c(cc1Cl)CC(Nc1ncc(-c3nnc(N4CCC(c5cnn[nH]5)CC4)o3)cn1)C2` [Example 6, 5-(5-(4-(1H-1,2,3-Triazol-5-yl)piperidin-1-yl)-1,3,4-oxadiazol-2-yl)-N-(5,6-dichloro-2,3-dihydro-1H-inden-2-yl)pyrimidin-2-amine] returned an inhibition at 0.5 µM of 91%.

With `c1cnc2c(n1)CC(Nc1ncc(-c3nnc(N4CCC(c5cnn[nH]5)CC4)o3)cn1)C2` [Example 7, N-(5-(5-(4-(1H-1,2,3-triazol-5-yl)piperidin-1-yl)-1,3,4-oxadiazol-2-yl)pyrimidin-2-yl)-6,7-dihydro-5H-cyclopenta[b]pyrazin-6-amine], the inhibition at 0.5 µM is 40%.

Take `c1ccc2c(c1)CC(Nc1ccc(-c3nnc(N4CCC(c5cnn[nH]5)CC4)o3)nn1)C2` [Example 8, 6-(5-(4-(1H-1,2,3-Triazol-5-yl)piperidin-1-yl)-1,3,4-oxadiazol-2-yl)-N-(2,3-dihydro-1H-inden-2-yl)pyridazin-3-amine]: testing at 0.5 µM gave an inhibition of 14%. The same measure, in the same setting: for `c1ccc2c(c1)CC(Nc1ncc(-c3nnc(N4CCC(n5cncn5)CC4)o3)cn1)C2` [Example 9, 5-(5-(4-(1H-1,2,4-Triazol-1-yl)piperidin-1-yl)-1,3,4-oxadiazol-2-yl)-N-(2,3-dihydro-1H-inden-2-yl)pyrimidin-2-amine] the value was 81%; for `Cc1ncn(C2CCN(c3nnc(-c4cnc(NC5Cc6ccccc6C5)nc4)o3)CC2)n1` [Example 10, N-(2,3-dihydro-1H-inden-2-yl)-5-(5-(4-(3-methyl-1H-1,2,4-triazol-1-yl)piperidin-1-yl)-1,3,4-oxadiazol-2-yl)pyrimidin-2-amine], 75%. `CC1CC(c2cnn[nH]2)CCN1c1nnc(-c2cnc(NC3Cc4ccc(Br)cc4C3)nc2)o1` (stereo not drawn) [Example 11, N-(5-bromo-2,3-dihydro-1H-inden-2-yl)-5-(5-(2-methyl-4-(1H-1,2,3-triazol-5-yl)piperidin-1-yl)-1,3,4-oxadiazol-2-yl)pyrimidin-2-amine]: testing at 0.5 µM gave an inhibition of 99%. On the same count and under the same terms, for `Brc1ccc2c(c1)CC(Nc1ccc(-c3nnc(N4CCC(c5cnn[nH]5)CC4)o3)cn1)C2` (stereo not drawn) [Example 12, 5-(5-(4-(1H-1,2,3-Triazol-5-yl)piperidin-1-yl)-1,3,4-oxadiazol-2-yl)-N-(5-bromo-2,3-dihydro-1H-inden-2-yl)pyridin-2-amine] the value was 84%; for `Brc1ccc2c(c1)CC(Nc1cnc(-c3nnc(N4CCC(c5cnn[nH]5)CC4)o3)cn1)C2` (stereo not drawn) [Example 13, 5-(5-(4-(1H-1,2,3-Triazol-5-yl)piperidin-1-yl)-1,3,4-oxadiazol-2-yl)-N-(5-bromo-2,3-dihydro-1H-inden-2-yl)pyrazin-2-amine], 75%. The same measure, in the same setting: for `Clc1cc(NC2Cc3ccc(Br)cc3C2)ncc1-c1nnc(N2CCC(c3cnn[nH]3)CC2)o1` (stereo not drawn) [Example 14, 5-(5-(4-(1H-1,2,3-Triazol-5-yl)piperidin-1-yl)-1,3,4-oxadiazol-2-yl)-N-(5-bromo-2,3-dihydro-1H-inden-2-yl)-4-chloropyridin-2-amine] the value was 5%; for `Clc1cc(Cl)cc(CNc2ncc(-c3nnc(N4CCC(c5cnn[nH]5)CC4)o3)cn2)c1` [Example 15, 5-(5-(4-(1H-1,2,3-Triazol-5-yl)piperidin-1-yl)-1,3,4-oxadiazol-2-yl)-N-(3,5-dichlorobenzyl)pyrimidin-2-amine], 100%. In the case of `Clc1cc(Cl)cc(CCNc2ncc(-c3nnc(N4CCC(c5cnn[nH]5)CC4)o3)cn2)c1` [Example 16, 5-(5-(4-(H-1,2,3-Triazol-5-yl)piperidin-1-yl)-1,3,4-oxadiazol-2-yl)-N-(3,5-dichlorophenethyl)pyrimidin-2-amine], the “inhibition (%) at 500 nM” value turned out to be 84%. `O=C(CCc1cnc(NC2Cc3ccccc3C2)nc1)N1CCC(c2cnn[nH]2)CC1` [Example 17, 1-(4-(1H-1,2,3-Triazol-5-yl)piperidin-1-yl)-3-(2-((2,3-dihydro-1H-inden-2-yl)amino)pyrimidin-5-yl)propan-1-one] displayed an inhibition at 0.5 µM of 92%.

In turn, `O=C(CCc1cnc(NC2Cc3ccccc3C2)nc1)N1CCC(c2cnc[nH]2)CC1` [Example 18, 1-(4-(1H-Imidazol-5-yl)piperidin-1-yl)-3-(2-((2,3-dihydro-1H-inden-2-yl)amino)pyrimidin-5-yl)propan-1-one] displayed an inhibition at 0.5 µM of 85%. Same read-out and setting: to `O=C(CCCc1nnc(NC2Cc3ccccc3C2)s1)N1CCC(c2cnn[nH]2)CC1` [Example 19, 1-(4-(1H-1,2,3-Triazol-5-yl)piperidin-1-yl)-4-(5-((2,3-dihydro-1H-inden-2-yl)amino)-1,3,4-thiadiazol-2-yl)butan-1-one] belongs 43%; to `O=C(CCCc1nnc(NC2Cc3ccccc3C2)s1)N1CCC(c2cnc[nH]2)CC1` [Example 20, 1-(4-(1H-Imidazol-5-yl)piperidin-1-yl)-4-(5-((2,3-dihydro-1H-inden-2-yl)amino)-1,3,4-thiadiazol-2-yl)butan-1-one], 14%. On the same count and under the same terms, to `O=C(CCCc1nnc(NC2Cc3ccccc3C2)o1)N1CCC(c2cnn[nH]2)CC1` [Example 21, 1-(4-(1H-1,2,3-Triazol-5-yl)piperidin-1-yl)-4-(5-((2,3-dihydro-1H-inden-2-yl)amino)-1,3,4-oxadiazol-2-yl)butan-1-one] belongs 64%; to `O=C(CCCc1nnc(NC2Cc3ccccc3C2)o1)N1CCC(c2cnc[nH]2)CC1` [Example 22, 1-(4-(1H-Imidazol-5-yl)piperidin-1-yl)-4-(5-((2,3-dihydro-1H-inden-2-yl)amino)-1,3,4-oxadiazol-2-yl)butan-1-one], 17%.

Turning to `O=C(COCc1nnc(NC2Cc3ccccc3C2)s1)N1CCC(c2cnn[nH]2)CC1` [Example 23, 1-(4-(1H-1,2,3-Triazol-5-yl)piperidin-1-yl)-2-((5-((2,3-dihydro-1H-inden-2-yl)amino)-1,3,4-thiadiazol-2-yl)methoxy)ethanone], 0.5 µM produced 20% inhibition. Take `Fc1cc2c(cc1F)CC(Nc1ncc(-c3nnc(N4CCC(c5nnc(C(F)(F)F)o5)CC4)o3)cn1)C2` [Example 24, N-(5,6-difluoro-2,3-dihydro-1H-inden-2-yl)-5-(5-(4-(5-(trifluoromethyl)-1,3,4-oxadiazol-2-yl)piperidin-1-yl)-1,3,4-oxadiazol-2-yl)pyrimidin-2-amine]: testing at 0.5 µM gave an inhibition of 30.2%.

In the case of `Fc1cc2c(cc1F)CC(Nc1ncc(-c3nnc(N4CCC(c5nnc(C(F)F)o5)CC4)o3)cn1)C2` [Example 25, N-(5,6-difluoro-2,3-dihydro-1H-inden-2-yl)-5-(5-(4-(5-(difluoromethyl)-1,3,4-oxadiazol-2-yl)piperidin-1-yl)-1,3,4-oxadiazol-2-yl)pyrimidin-2-amine], the inhibition at 0.5 µM was found to be 31.1%. The compound `Fc1cc2c(cc1F)CC(Nc1ncc(-c3nnc(N4CCC(c5ncon5)CC4)o3)cn1)C2` [Example 26, 5-(5-(4-(1,2,4-Oxadiazol-3-yl)piperidin-1-yl)-1,3,4-oxadiazol-2-yl)-N-(5,6-difluoro-2,3-dihydro-1H-inden-2-yl)pyrimidin-2-amine] came in with an inhibition at 0.5 µM of 27.9%. For `Fc1cc2c(cc1F)CC(Nc1ncc(-c3nnc(N4CCC(c5nnco5)CC4)o3)cn1)C2` [Example 27, 5-(5-(4-(1,3,4-Oxadiazol-2-yl)piperidin-1-yl)-1,3,4-oxadiazol-2-yl)-N-(5,6-difluoro-2,3-dihydro-1H-inden-2-yl)pyrimidin-2-amine], testing at 0.5 µM gave an inhibition of 29%.

As usually defined, the inhibition is how much of the control response was suppressed.
